Read-outs that look alike come from different tables or passages of the source.
What was measured:
[1] = test system: greenhouse red spider mite (Tetranychus urticae); assay: Tetranychus urticae - spray test, OP-resistant; assay type: in vivo; settings: bean leaf discs, after 6 days
Method: (§1) Solvent: 78.0 parts by weight of acetone • • 1.5 parts by weight of dimethylformamide
(§2) Emulsifier: alkylaryl polyglycol ether
(§3) To produce a suitable active compound formulation, 1 part by weight of active compound is dissolved with the stated parts by weight of solvent and made up with water containing an emulsifier concentration of 1000 ppm until the desired concentration is attained. To produce further test concentrations, the formulation is diluted with emulsifier-containing water.
Discs of bean leaves (Phaseolus vulgaris) infested with all stages of the greenhouse red spider mite (Tetranychus urticae) are sprayed with an active compound formulation of the desired concentration.
After 6 days, the efficacy in % is determined. 100% means that all the spider mites have been killed; 0% means that no spider mites have been killed.

[2] = log P by HPLC on a reversed-phase column (C 18), EEC Directive 79/831 Annex V.A8; assay type: physicochemical; settings: for chromatographic logP: reversed-phase HPLC column (C 18)
Excerpt: Called log P (HCOOH) in the table.
Called log P (neutral) in the table.

[3] = test system: larvae of the mustard beetle (Phaedon cochleariae); assay: Phaedon cochleariae - spray test; assay type: in vivo; settings: after 7 days
Method: as §1, §2, §3
Discs of Chinese cabbage leaves (Brassica pekinensis) are sprayed with an active compound formulation of the desired concentration and, after drying, populated with larvae of the mustard beetle (Phaedon cochleariae).
After 7 days, the efficacy in % is determined. 100% means that all the beetle larvae have been killed and 0% means that none of the beetle larvae have been killed.

[4] = test system: L1 larvae of the Australian sheep blowfly (Lucilia cuprina); assay: Lucilia cuprina test; assay type: in vivo; settings: application rate 100 ppm; after 2 days
Method: (§4) Solvent: dimethyl sulphoxide
To produce a suitable active compound formulation, 10 mg of active compound are mixed with 0.5 ml of dimethyl sulphoxide, and the concentrate is diluted with water to the desired concentration.
About 20 L1 larvae of the Australian sheep blowfly (Lucilia cuprina) are transferred into a test vessel containing minced horsemeat and the active compound formulation of the desired concentration.
After 2 days, the kill in % is determined. 100% means that all the larvae have been killed; 0% means that no larvae have been killed.

[5] = test system: caterpillars of the armyworm (Spodoptera frugiperda); assay: Spodoptera frugiperda - spray test; assay type: in vivo; settings: maize leaf discs, after 7 days
Method: Solvent: 78.0 parts by weight of acetone • • 1.5 parts by weight of dimethylformamide Emulsifier: alkylaryl polyglycol ether […] To produce further test concentrations, the formulation is diluted with emulsifier-containing water. Leaf discs of maize (Zea mays) are sprayed with an active compound preparation of the desired concentration and, after drying, populated with caterpillars of the armyworm (Spodoptera frugiperda).

[6] = test system: adult cat fleas (Ctenocephalides felis); assay: Ctenocephalides felis - in vitro contact tests with adult cat fleas; assay type: in vivo; settings: application rate 5 μg/cm^2; after 48 h
Method: For the coating of the test tubes, 9 mg of active compound are first dissolved in 1 ml of acetone p.a. and then diluted to the desired concentration with acetone p.a. 250 μl of the solution are distributed homogeneously on the inner walls and the base of a 25 ml test tube by turning and rocking on an orbital shaker (rocking rotation at 30 rpm for 2 h). With 900 ppm of active compound solution and internal surface area 44.7 cm^2, given homogeneous distribution, an area-based dose of 5 μg/cm^2 is achieved.
After the solvent has evaporated off, the tubes are populated with 5-10 adult cat fleas (Ctenocephalides felis), sealed with a perforated plastic lid and incubated in a horizontal position at room temperature and ambient humidity. After 48 h, efficacy is determined. To this end, the test tubes are stood upright and the fleas are knocked to the base of the tube. Fleas which remain motionless at the base or move in an uncoordinated manner are considered to be dead or moribund.
100% efficacy means that all the fleas were dead or moribund. 0% efficacy means that no fleas were harmed.

[7] = test system: green peach aphid (Myzus persicae); assay: Myzus persicae spray test (bell pepper plants); assay type: in vivo; settings: application rate 20 ppm, after 6 days
Method: Solvent: 14 parts by weight of dimethylformamide
as §2
To produce a suitable active compound formulation, 1 part by weight of active compound is dissolved with the stated parts by weight of solvent and made up with water containing an emulsifier concentration of 1000 ppm until the desired concentration is attained. To produce further test concentrations, the formulation is diluted with emulsifier-containing water. If the addition of ammonium salts or/and penetrants is required, these are each added in a concentration of 1000 ppm to the formulation solution.
Bell pepper plants (Capsicum annuum) severely infested with the green peach aphid (Myzus persicae) are treated by spraying with the active compound formulation in the desired concentration.
After 6 days, the kill in % is determined. 100% means that all of the aphids have been killed; 0% means that none of the aphids have been killed.

[8] = test system: unfed adult cat fleas (Ctenocephalides felis); assay: Ctenocephalides felis - oral test; assay type: in vivo; settings: application rate 100 ppm in citrated cattle blood; after 2 days
Method: as §4
For the purpose of production of a suitable active compound formulation, 10 mg of active compound are mixed with 0.5 ml of dimethyl sulphoxide. Dilution with citrated cattle blood gives the desired concentration.
About 20 unfed adult cat fleas (Ctenocephalides felis) are placed into a chamber which is closed at the top and bottom with gauze. A metal cylinder whose bottom end is closed with parafilm is placed onto the chamber. The cylinder contains the blood/active compound formulation, which can be imbibed by the fleas through the parafilm membrane.
After 2 days, the kill in % is determined. 100% means that all of the fleas have been killed; 0% means that none of the fleas have been killed.

[9] = test system: green peach aphid (Myzus persicae); assay: Myzus persicae - spray test (Chinese cabbage leaf discs); assay type: in vivo; settings: after 5 days
Method: Solvent: 78 parts by weight of acetone • • 1.5 parts by weight of dimethylformamide Emulsifier: alkylaryl polyglycol ether
as §3
Discs of Chinese cabbage leaves (Brassica pekinensis) infested by all stages of the green peach aphid (Myzus persicae) are sprayed with an active compound formulation of the desired concentration.
After 5 days, the efficacy in % is determined. 100% means that all the aphids have been killed and 0% means that none of the aphids have been killed.

[10] = acidic range, pH 2.7, 0.1% aqueous formic acid/acetonitrile, 55° C.
[11] = neutral range, pH 7.8, 0.001 molar aqueous ammonium hydrogencarbonate/acetonitrile, 55° C.

SMILES: CCS(=O)(=O)c1ccc(-n2nnc3ccccc32)nc1-c1nc2cc(C(F)(F)F)ncc2n1C [Example I-39]
- efficacy ([1]; application rate 100 g/ha): 70%
- LOGP_NEUTRAL (log P (neutral)) ([2]; pH 7.8): 3.21

SMILES: CCS(=O)(=O)c1ccc(-n2ncc3ccc(Cl)cc32)nc1-c1nc2cc(C(F)(F)F)ncc2n1C [Example I-2, 2-[6-(6-Chloroindazol-1-yl)-3-ethylsulphonyl-2-pyridyl]-3-methyl-6-(trifluoromethyl)imidazo[4,5-c]pyridine]
- efficacy ([1]; application rate 500 g/ha): 70%
- chromatographic logP ([2]; acidic range, pH 2.7, 0.1% aqueous formic acid/acetonitrile, 55° C., read-out: LOGP_HCOOH (log P (HCOOH))): 4.01
- chromatographic logP ([2]; neutral range, pH 7.8, 0.001 molar aqueous ammonium hydrogencarbonate/acetonitrile, 55° C., read-out: LOGP_NEUTRAL (log P (neutral))): 3.92

SMILES: CCS(=O)(=O)c1ccc(N2Cc3ccccc3C2=O)nc1-c1nc2cc(C(F)(F)F)ncc2n1C [Example I-31]
- efficacy ([3]; application rate 100 g/ha): 100%
- efficacy ([3]; application rate 500 g/ha): 100%
- efficacy (kill) [4]: 100%
- efficacy ([5]; application rate 100 g/ha): 100%
- efficacy ([5]; application rate 500 g/ha): 100%
- efficacy (fleas dead or moribund) [6]: 100%
- efficacy ([1]; application rate 500 g/ha): 90%
- LOGP_HCOOH (log P (HCOOH)) [2, 10]: 3.32
- LOGP_NEUTRAL (log P (neutral)) [2, 11]: 3.28

SMILES: CCS(=O)(=O)c1ccc(N2Cc3ccccc3C2)nc1-c1nc2cc(C(F)(F)F)ncc2n1C [Example I-21]
- efficacy ([3]; application rate 500 g/ha): 83%
- efficacy (kill) [4]: 100%
- efficacy ([5]; application rate 100 g/ha): 100%
- efficacy ([5]; application rate 500 g/ha): 100%
- efficacy (fleas dead or moribund) [6]: 80%
- efficacy (kill) [7]: 100%
- LOGP_HCOOH (log P (HCOOH)) ([2]; pH 2.7): 3.59
- LOGP_NEUTRAL (log P (neutral)) ([2]; pH 7.8): 3.63
- efficacy (kill) [8]: 90%

SMILES: CCS(=O)(=O)c1ccc(N2Cc3ccc(Cl)cc3C2=O)nc1-c1nc2cc(C(F)(F)F)ncc2n1C [Example I-34]
- efficacy ([3]; application rate 100 g/ha): 100%
- efficacy ([3]; application rate 500 g/ha): 100%
- efficacy (kill) [4]: 100%
- efficacy ([5]; application rate 100 g/ha): 100%
- efficacy ([5]; application rate 500 g/ha): 100%
- efficacy (fleas dead or moribund) [6]: 100%
- efficacy (kill) [7]: 100%
- LOGP_HCOOH (log P (HCOOH)) ([2]; pH 2.7): 3.83
- LOGP_NEUTRAL (log P (neutral)) ([2]; pH 7.8): 3.79
- efficacy (kill) [8]: 95%

SMILES: CCS(=O)(=O)c1ccc(-c2ccc3nn(C)cc3c2)nc1-c1nc2cc(C(F)(F)F)ncc2n1C [Example I-15]
- efficacy ([3]; application rate 100 g/ha): 100%
- efficacy ([3]; application rate 500 g/ha): 100%
- efficacy (kill) [4]: 100%
- efficacy ([5]; application rate 500 g/ha): 100%
- efficacy ([1]; application rate 500 g/ha): 90%
- LOGP_HCOOH (log P (HCOOH)) ([2]; pH 2.7): 2.62
- LOGP_NEUTRAL (log P (neutral)) ([2]; pH 7.8): 2.58

SMILES: CCS(=O)(=O)c1ccc(-n2cnc3cc(Cl)ccc32)nc1-c1nc2cc(C(F)(F)F)ncc2n1C [Example I-17]
- efficacy ([3]; application rate 100 g/ha): 100%
- efficacy ([3]; application rate 500 g/ha): 100%
- efficacy ([5]; application rate 100 g/ha): 100%
- efficacy ([5]; application rate 500 g/ha): 100%
- efficacy (kill) [7]: 90%
- LOGP_HCOOH (log P (HCOOH)) ([2]; pH 2.7): 3.19
- LOGP_NEUTRAL (log P (neutral)) ([2]; pH 7.8): 3.12
- efficacy (kill) [8]: 100%

SMILES: CCS(=O)(=O)c1ccc(-n2cnc3ccccc32)nc1-c1nc2cc(C(F)(F)F)ncc2n1C [Example I-24]
- efficacy ([3]; application rate 500 g/ha): 83%
- efficacy ([5]; application rate 100 g/ha): 83%
- efficacy ([5]; application rate 500 g/ha): 100%
- efficacy (fleas dead or moribund) [6]: 100%
- LOGP_HCOOH (log P (HCOOH)) ([2]; pH 2.7): 2.66
- LOGP_NEUTRAL (log P (neutral)) ([2]; pH 7.8): 2.64
- efficacy (kill) [8]: 95%
- efficacy ([9]; application rate 100 g/ha): 100%
- efficacy ([9]; application rate 500 g/ha): 90%

SMILES: CCS(=O)(=O)c1ccc(-c2cc3cc(C#N)ccc3[nH]2)nc1-c1nc2cc(C(F)(F)F)ncc2n1C [Example I-3]
- efficacy ([3]; application rate 100 g/ha): 100%
- efficacy ([3]; application rate 500 g/ha): 100%
- efficacy (kill) [4]: 100%
- efficacy ([5]; application rate 100 g/ha): 100%
- efficacy ([5]; application rate 500 g/ha): 83%
- LOGP_HCOOH (log P (HCOOH)) ([2]; pH 2.7): 3.18
- LOGP_NEUTRAL (log P (neutral)) ([2]; pH 7.8): 3.08
- efficacy (kill) [8]: 95%

SMILES: CCS(=O)(=O)c1ccc(-n2nc3ccccn3c2=O)nc1-c1nc2cc(C(F)(F)F)ncc2n1C [Example I-43]
- efficacy ([1]; application rate 100 g/ha): 90%
- LOGP_HCOOH (log P (HCOOH)) ([2]; pH 2.7): 2.26
- LOGP_NEUTRAL (log P (neutral)) ([2]; pH 7.8): 2.31
- efficacy ([9]; application rate 100 g/ha): 90%

SMILES: CCS(=O)(=O)c1ccc(-n2cnc3nc(Cl)ccc32)nc1-c1nc2cc(C(F)(F)F)ncc2n1C [Example I-35]
- efficacy ([3]; application rate 100 g/ha): 83%
- efficacy ([3]; application rate 500 g/ha): 100%
- efficacy (fleas dead or moribund) [6]: 100%
- LOGP_NEUTRAL (log P (neutral)) ([2]; pH 7.8): 2.53
- efficacy (kill) [8]: 95%

SMILES: CCS(=O)(=O)c1ccc(N2Cc3cccnc3C2)nc1-c1nc2cc(C(F)(F)F)ncc2n1C [Example I-22]
- efficacy ([3]; application rate 100 g/ha): 100%
- efficacy ([3]; application rate 500 g/ha): 100%
- efficacy (kill) [4]: 100%
- efficacy ([5]; application rate 100 g/ha): 100%
- efficacy ([5]; application rate 500 g/ha): 100%
- efficacy (fleas dead or moribund) [6]: 100%
- efficacy (kill) [7]: 99%
- LOGP_HCOOH (log P (HCOOH)) [2, 10]: 2.44
- LOGP_NEUTRAL (log P (neutral)) [2, 11]: 2.46
- efficacy (kill) [8]: 100%

Reference: patent US10375962B2, “Heterocycle derivatives as pesticides” (BAYER CROPSCIENCE AKTIENGESELLSCHAFT, priority 2016, dated 2019)
